Key:
[1] = system: Escherichia coli; experiment: Antimicrobial activity against oxacillinase-producing Escherichia coli 50579417 assessed as reduction in bacterial growth incubated for 48 hrs by microdilution method; type: functional
[2] = Hemolytic activity in human erythrocytes incubated for 1 hr by microplate reader; type: functional, cell-based; conditions: erythrocyte
[3] = system: Escherichia coli; experiment: Antimicrobial activity against imipenem-type carbapenemase-26 producing Escherichia coli 50857972 assessed as reduction in bacterial growth incubated for 48 hrs by microdilution method; type: functional
[4] = system: HepG2; experiment: Cytotoxicity against human HepG2 cells assessed as reduction in cell viability incubated for 24 hrs by colorimetric tetrazolium assay; type: functional, cell-based; conditions: HepG2, 24 h
[5] = system: Staphylococcus aureus; experiment: Antimicrobial activity against Staphylococcus aureus ATCC 9144 assessed as reduction in bacterial growth incubated for 48 hrs by microdilution susceptibility test; type: functional
[6] = Antimicrobial activity against New Delhi metallo-beta lactamase-1 Klebsiella pneumoniae K66-45 assessed as reduction in bacterial growth incubated for 48 hrs by microdilution method; type: functional
[7] = system: Escherichia coli; experiment: Antimicrobial activity against Escherichia coli ATCC 25922 assessed as reduction in bacterial growth incubated for 48 hrs by microdilution susceptibility test; type: functional
[8] = system: Enterococcus faecium; experiment: Antimicrobial activity against extended spectrum-lactamase-carbapenemas producing Enterococcus faecium strain 50673722 assessed as reduction in bacterial growth incubated for 48 hrs by microdilution method; type: functional
[9] = system: Pseudomonas aeruginosa; experiment: Antimicrobial activity against Pseudomonas aeruginosa PAO1 assessed as reduction in bacterial growth incubated for 48 hrs by microdilution susceptibility test; type: functional
[10] = system: Escherichia coli; experiment: Antimicrobial activity against verona integron-encoded metallo-beta-lactamase-29-producing Escherichia coli 50639799 assessed as reduction in bacterial growth incubated for 48 hrs by microdilution method; type: functional
[11] = system: Enterococcus faecium; experiment: Antimicrobial activity against extended spectrum-lactamase-carbapenemas producing Enterococcus faecium strain TUH.50-22 assessed as reduction in bacterial growth incubated for 48 hrs by microdilution method; type: functional
[12] = system: Acinetobacter baumannii; experiment: Antimicrobial activity against oxacillinase-23 producing Acinetobacter baumannii K44-35 assessed as reduction in bacterial growth incubated for 48 hrs by microdilution method; type: functional
[13] = system: Acinetobacter baumannii; experiment: Antimicrobial activity against oxacillinase-23 producing Acinetobacter baumannii K47-42 assessed as reduction in bacterial growth incubated for 48 hrs by microdilution method; type: functional
[14] = system: Acinetobacter baumannii; experiment: Antimicrobial activity against oxacillinase-24 producing Acinetobacter baumannii K55-13 assessed as reduction in bacterial growth incubated for 48 hrs by microdilution method; type: functional
[15] = system: Staphylococcus aureus; experiment: Antimicrobial activity against extended spectrum-lactamase-carbapenemas producing Staphylococcus aureus strain 85/2082 assessed as reduction in bacterial growth incubated for 48 hrs by microdilution method; type: functional
[16] = system: Acinetobacter baumannii; experiment: Antimicrobial activity against oxacillinase-23 producing Acinetobacter baumannii K63-58 assessed as reduction in bacterial growth incubated for 48 hrs by microdilution method; type: functional
[17] = system: MRC5; experiment: Cytotoxicity against human MRC5 cells assessed as reduction in cell viability incubated for 24 hrs by colorimetric tetrazolium assay; type: functional, cell-based; conditions: MRC5, 24 h
[18] = system: Pseudomonas aeruginosa; experiment: Antimicrobial activity against New Delhi metallo-beta lactamase-1 producing Pseudomonas aeruginosa 50692172 assessed as reduction in bacterial growth incubated for 48 hrs by microdilution method; type: functional
[19] = system: Enterococcus faecium; experiment: Antimicrobial activity against extended spectrum-lactamase-carbapenemas producing Enterococcus faecium strain 50758899 assessed as reduction in bacterial growth incubated for 48 hrs by microdilution method; type: functional
[20] = system: Acinetobacter baumannii; experiment: Antimicrobial activity against oxacillinase-58 producing Acinetobacter baumannii K12-21 assessed as reduction in bacterial growth incubated for 48 hrs by microdilution method; type: functional
[21] = system: Pseudomonas aeruginosa; experiment: Antimicrobial activity against verona integron-encoded metallo-beta-lactamase producing Pseudomonas aeruginosa 50692520 assessed as reduction in bacterial growth incubated for 48 hrs by microdilution method; type: functional
[22] = Antimicrobial activity against oxacillinase-245 producing Klebsiella pneumoniae 50625602 assessed as reduction in bacterial growth incubated for 48 hrs by microdilution method; type: functional
[23] = system: Corynebacterium glutamicum; experiment: Antimicrobial activity against Corynebacterium glutamicum ATCC 13032 assessed as reduction in bacterial growth incubated for 48 hrs by microdilution susceptibility test; type: functional
[24] = system: Staphylococcus aureus; experiment: Antimicrobial activity against extended spectrum-lactamase-carbapenemas producing Staphylococcus aureus strain IHT 99040 assessed as reduction in bacterial growth incubated for 48 hrs by microdilution method; type: functional
[25] = system: Pseudomonas aeruginosa; experiment: Antimicrobial activity against verona integron-encoded metallo-beta-lactamase-2 producing Pseudomonas aeruginosa K34-7 assessed as reduction in bacterial growth incubated for 48 hrs by microdilution method; type: functional
[26] = system: Staphylococcus aureus; experiment: Antimicrobial activity against extended spectrum-lactamase-carbapenemas producing Staphylococcus aureus N315 assessed as reduction in bacterial growth incubated for 48 hrs by microdilution method; type: functional
[27] = system: Enterococcus faecium; experiment: Antimicrobial activity against extended spectrum-lactamase-carbapenemas producing Enterococcus faecium strain 50901530 assessed as reduction in bacterial growth incubated for 48 hrs by microdilution method; type: functional
[28] = system: Escherichia coli; experiment: Antimicrobial activity against New Delhi metallo-beta lactamase-1 producing Escherichia coli 50739822 assessed as reduction in bacterial growth incubated for 48 hrs by microdilution method; type: functional
[29] = system: Pseudomonas aeruginosa; experiment: Antimicrobial activity against verona integron-encoded metallo-beta-lactamase-4 producing Pseudomonas aeruginosa K34-73 assessed as reduction in bacterial growth incubated for 48 hrs by microdilution method; type: functional
[30] = system: Escherichia coli; experiment: Antimicrobial activity against New Delhi metallo-beta lactamase-1 producing Escherichia coli 50676002 assessed as reduction in bacterial growth incubated for 48 hrs by microdilution method; type: functional
[31] = Antimicrobial activity against carbapenemase producing Klebsiella pneumoniae K47-25 assessed as reduction in bacterial growth incubated for 48 hrs by microdilution method; type: functional
[32] = system: Staphylococcus aureus; experiment: Antimicrobial activity against extended spectrum-lactamase-carbapenemas producing Staphylococcus aureus strain WIS assessed as reduction in bacterial growth incubated for 48 hrs by microdilution method; type: functional
[33] = system: Staphylococcus aureus; experiment: Antimicrobial activity against extended spectrum-lactamase-carbapenemas producing Staphylococcus aureus NCTC 10442 assessed as reduction in bacterial growth incubated for 48 hrs by microdilution method; type: functional
[34] = system: Enterococcus faecium; experiment: Antimicrobial activity against extended spectrum-lactamase-carbapenemas producing Enterococcus faecium strain K36-18 assessed as reduction in bacterial growth incubated for 48 hrs by microdilution method; type: functional
[35] = Antimicrobial activity against verona integron-encoded metallo-beta-lactamase -1 producing Klebsiella pneumoniae 50667959 assessed as reduction in bacterial growth incubated for 48 hrs by microdilution method; type: functional
[36] = system: Pseudomonas aeruginosa; experiment: Antimicrobial activity against imipenem-type carbapenemase-14 producing Pseudomonas aeruginosa K44-24 assessed as reduction in bacterial growth incubated for 48 hrs by microdilution method; type: functional
[37] = Antimicrobial activity against New Delhi metallo-beta lactamase-1 and oxacillinase -181 producing Klebsiella pneumoniae 50531633 assessed as reduction in bacterial growth incubated for 48 hrs by microdilution method; type: functional

## NCCCCN1C(=O)N(CCCCN)C(=O)C(Cc2ccc(F)c3ccccc23)(Cc2ccc(F)c3ccccc23)C1=O.O=C(O)C(F)(F)F.O=C(O)C(F)(F)F
[1]
  MIC: 16 µg/mL
[2]
  EC50: 160 µg/mL
[3]
  MIC: 16 µg/mL
[4]
  IC50: 5 µg/mL
[5]
  MIC: 4 µg/mL
[6]
  MIC: 32 µg/mL
[7]
  MIC: 16 µg/mL
[8]
  MIC: 8 µg/mL
[9]
  MIC: 8 µg/mL
[10]
  MIC: 16 µg/mL
[11]
  MIC: 4 µg/mL
[12]
  MIC: 32 µg/mL
[13]
  MIC: 32 µg/mL
[14]
  MIC: 32 µg/mL
[15]
  MIC: 4 µg/mL
[16]
  MIC: 16 µg/mL
[17]
  IC50: 2 µg/mL
[18]
  MIC: 16 µg/mL
[19]
  MIC: 8 µg/mL
[20]
  MIC: 32 µg/mL
[21]
  MIC: 16 µg/mL
[22]
  MIC: 32 µg/mL
[23]
  MIC: 1 µg/mL
[24]
  MIC: 8 µg/mL
[25]
  MIC: 32 µg/mL
[26]
  MIC: 8 µg/mL
[27]
  MIC: 4 µg/mL
[28]
  MIC: 16 µg/mL
[29]
  MIC: 32 µg/mL
[30]
  MIC: 16 µg/mL
[31]
  MIC: > 32 µg/mL
[32]
  MIC: 8 µg/mL
[33]
  MIC: 8 µg/mL
[34]
  MIC: 8 µg/mL
[35]
  MIC: 32 µg/mL
[36]
  MIC: 32 µg/mL
[37]
  MIC: 16 µg/mL

## N=C(N)NCCCCN1C(=O)N(CCCCNC(=N)N)C(=O)C(Cc2ccc(F)c3ccccc23)(Cc2ccc(F)c3ccccc23)C1=O.O=C(O)C(F)(F)F.O=C(O)C(F)(F)F
[1]
  MIC: 8 µg/mL
[2]
  EC50: 90 µg/mL
[3]
  MIC: 4 µg/mL
[4]
  IC50: 56 µg/mL
[5]
  MIC: 1 µg/mL
[6]
  MIC: 4 µg/mL
[7]
  MIC: 1 µg/mL
[8]
  MIC: 4 µg/mL
[9]
  MIC: 4 µg/mL
[10]
  MIC: 4 µg/mL
[11]
  MIC: 4 µg/mL
[12]
  MIC: 8 µg/mL
[13]
  MIC: 8 µg/mL
[14]
  MIC: 8 µg/mL
[15]
  MIC: 2 µg/mL
[16]
  MIC: 8 µg/mL
[17]
  IC50: 23 µg/mL
[18]
  MIC: 16 µg/mL
[19]
  MIC: 4 µg/mL
[20]
  MIC: 8 µg/mL
[21]
  MIC: 16 µg/mL
[22]
  MIC: 16 µg/mL
[23]
  MIC: 0.25 µg/mL
[24]
  MIC: 2 µg/mL
[25]
  MIC: 16 µg/mL
[26]
  MIC: 2 µg/mL
[27]
  MIC: 4 µg/mL
[28]
  MIC: 8 µg/mL
[29]
  MIC: 8 µg/mL
[30]
  MIC: 4 µg/mL
[31]
  MIC: 8 µg/mL
[32]
  MIC: 2 µg/mL
[33]
  MIC: 2 µg/mL
[34]
  MIC: 4 µg/mL
[35]
  MIC: 4 µg/mL
[36]
  MIC: 16 µg/mL
[37]
  MIC: 8 µg/mL

## CC(C)(C)c1cc(CC2(Cc3cc(C(C)(C)C)cc(C(C)(C)C)c3)C(=O)N(CCCCNC(=N)N)C(=O)N(CCCCNC(=N)N)C2=O)cc(C(C)(C)C)c1.O=C(O)C(F)(F)F.O=C(O)C(F)(F)F
[1]
  MIC: 16 µg/mL
[2]
  EC50: < 6 µg/mL
[3]
  MIC: 8 µg/mL
[4]
  IC50: 15 µg/mL
[5]
  MIC: 1 µg/mL
[6]
  MIC: 8 µg/mL
[7]
  MIC: 4 µg/mL
[8]
  MIC: 2 µg/mL
[9]
  MIC: 4 µg/mL
[10]
  MIC: 8 µg/mL
[11]
  MIC: 2 µg/mL
[12]
  MIC: 4 µg/mL
[13]
  MIC: 4 µg/mL
[14]
  MIC: 4 µg/mL
[15]
  MIC: 2 µg/mL
[16]
  MIC: 4 µg/mL
[17]
  IC50: 17 µg/mL
[18]
  MIC: 16 µg/mL
[19]
  MIC: 2 µg/mL
[20]
  MIC: 4 µg/mL
[21]
  MIC: 16 µg/mL
[22]
  MIC: 16 µg/mL
[23]
  MIC: 0.25 µg/mL
[24]
  MIC: 2 µg/mL
[25]
  MIC: 16 µg/mL
[26]
  MIC: 4 µg/mL
[27]
  MIC: 2 µg/mL
[28]
  MIC: 8 µg/mL
[29]
  MIC: 8 µg/mL
[30]
  MIC: 16 µg/mL
[31]
  MIC: 16 µg/mL
[32]
  MIC: 2 µg/mL
[33]
  MIC: 2 µg/mL
[34]
  MIC: 2 µg/mL
[35]
  MIC: 8 µg/mL
[36]
  MIC: 16 µg/mL
[37]
  MIC: 16 µg/mL

— ChEMBL document CHEMBL5055633, “Amphipathic Barbiturates as Mimics of Antimicrobial Peptides and the Marine Natural Products Eusynstyelamides with Activity against Multi-resistant Clinical Isolates” (J Med Chem, 2021)
